Each compound was assayed against T1, Human thrombin (Homo sapiens, UniProt P00734) (assay: Inhibition of the protease activity of thrombin (chromogenic substrate S-2238)). Details: Table C; 3 nM thrombin, 125 μM S-2238, 10 min pre-incubation, RT.
T1 construct: purchased Haematologic Technologies Inc
Assay type: biochemical
Experimental: Compounds described herein can be assayed, by a variety of methods known in the art and described herein, for inhibition of biological activity, e.g., protease activity, of a variety of proteins, e.g., thrombin.
The thrombin activity reported herein (e.g., Table A) was obtained as follows. Human thrombin was obtained from Haematologic Technologies Inc. The chromogenic
Thrombin was assayed in buffer containing 0.05 M Tris (pH 7.4), 0.015 M NaCl and 0.01% PEG-8000. The final concentration of enzyme used was 3 nM thrombin. […] All assays were performed in 96-well microtiter plates at room temperature (RT). […] Inhibitor IC50 values were determined by adding test compound as ten point, three-fold serial dilutions in buffer solution, as known in the art. The plate was read at 10 minutes after substrate addition. The IC50 was calculated by plotting the percent (%) inhibition against compound concentration and fitting the data to a constrained four parameter sigmoidal curve, as known in the art.
CC(C)C(=O)n1nc(-c2ccco2)nc1NCc1ccc(F)cc1 [Cmpd 310, 1-(5-[(4-fluorophenyl)methyl]amino-3-(furan-2-yl)-1H-1,2,4-triazol-1-yl)-2-methylpropan-1-one] showed an IC50 of less than 100 nM. For CC(C)C(=O)n1nc(-c2cccnc2)nc1NCc1ccco1 [Cmpd 361, 1-5-[(furan-2-ylmethyl)amino]-3-(pyridin-3-yl)-1H-1,2,4-triazol-1-yl-2-methylpropan-1-one], the IC50 was less than 100 nM. Compound CCC(=O)n1nc(-c2ccc(F)cc2)nc1NCc1ccccc1 [Cmpd 345, 1-[5-(benzylamino)-3-(4-fluorophenyl)-1H-1,2,4-triazol-1-yl]propan-1-one] has an IC50 greater than 1000 nM. Work on O=C(CCc1ccccc1)n1nc(-c2ccccc2)nc1NCc1ccccc1 [Cmpd 354, 1-[5-(benzylamino)-3-phenyl-1H-1,2,4-triazol-1-yl]-3-phenylpropan-1-one] yielded an IC50 greater than 1000 nM. O=C(c1cccs1)n1nc(-c2cccs2)nc1NCc1ccccc1 [Cmpd 412, N-benzyl-3-(thiophen-2-yl)-1-[(thiophen-2-yl)carbonyl]-1H-1,2,4-triazol-5-amine] showed an IC50 greater than 1000 nM. For Nc1nc(-c2cccnc2)n[nH]1 [Cmpd 1, 3-(pyridin-3-yl)-1H-1,2,4-triazol-5-amine], the IC50 was greater than 1000 nM. In the case of O=C(Nc1ccc(Cl)cc1Cl)c1n[nH]c(Cn2cncn2)n1 [Cmpd 390, N-(2,4-dichlorophenyl)-5-(1H-1,2,4-triazol-1-ylmethyl)-4H-1,2,4-triazole-3-carboxamide], the IC50 is reported as greater than 1000 nM. In the case of COc1ccccc1C(=O)n1nc(-c2ccccc2)nc1NCc1ccco1 [Cmpd 394, N-(furan-2-ylmethyl)-1-[(2-methoxyphenyl)carbonyl]-3-phenyl-1H-1,2,4-triazol-5-amine], the IC50 is reported as less than 100 nM. CC(=O)n1nc(-c2cccnc2)nc1NCc1ccco1 [Cmpd 363, 1-5-[(furan-2-ylmethyl)amino]-3-(pyridin-3-yl)-1H-1,2,4-triazol-1-ylethan-1-one] showed an IC50 of less than 100 nM. O=C(c1cccnc1)n1nc(-c2ccco2)nc1NCc1cccs1 [Cmpd 368, 3-(furan-2-yl)-1-[(pyridin-3-yl)carbonyl]-N-(thiophen-2-ylmethyl)-1H-1,2,4-triazol-5-amine] showed an IC50 of less than 100 nM. In the case of CCC(=O)n1nc(-c2cccnc2)nc1NCc1ccc(Cl)cc1 [Cmpd 308, 1-(5-[(4-chlorophenyl)methyl]amino-3-(pyridin-3-yl)-1H-1,2,4-triazol-1-yl)propan-1-one], the IC50 is reported as less than 100 nM. For Nc1nc(-c2cccs2)n[nH]1 [Cmpd 373, 3-(thiophen-2-yl)-1H-1,2,4-triazol-5-amine], the IC50 was greater than 1000 nM. Work on O=C(c1ccccc1)n1nc(-c2ccco2)nc1NCc1ccccc1 [Cmpd 358, 1-benzoyl-N-benzyl-3-(furan-2-yl)-1H-1,2,4-triazol-5-amine] yielded an IC50 of less than 100 nM.

Same assay, conditions: inhibition of the protease activity of thrombin
In the case of COc1ccc(C(=O)n2nc(-c3ccccn3)nc2NCc2ccccc2)c(C)c1 [Cmpd 264, N-benzyl-1-[(4-methoxy-2-methylphenyl)carbonyl]-3-(pyridin-2-yl)-1H-1,2,4-triazol-5-amine], the IC50 is reported as less than 100 nM. For COc1ccc(C(=O)n2nc(-c3ccccn3)nc2NCc2ccccc2)cc1 [Cmpd 265, N-benzyl-1-[(4-methoxyphenyl)carbonyl]-3-(pyridin-2-yl)-1H-1,2,4-triazol-5-amine], the IC50 was less than 100 nM. COc1ccccc1C(=O)n1nc(-c2ccccn2)cc1NCc1ccccc1 [Cmpd 256, N-benzyl-1-[(2-methoxyphenyl)carbonyl]-3-(pyridin-2-yl)-1H-pyrazol-5-amine] was tested, and the IC50 was 100 to 1000 nM. Work on COc1ccccc1C(=O)n1nc(-c2ccncc2)nc1NCc1ccccc1 [Cmpd 257, N-benzyl-1-[(2-methoxyphenyl)carbonyl]-3-(pyridin-4-yl)-1H-1,2,4-triazol-5-amine] yielded an IC50 of less than 100 nM. In the case of Cc1ccc(C(=O)n2nc(-c3ccccn3)nc2NCc2ccccc2)c(C)c1 [Cmpd 237, N-benzyl-1-[(2,4-dimethylphenyl)carbonyl]-3-(pyridin-2-yl)-1H-1,2,4-triazol-5-amine], the IC50 is reported as 100 to 1000 nM. O=C(c1ccc2ccccc2c1)n1nc(-c2ccccn2)cc1NCc1ccccc1 [Cmpd 272, N-benzyl-1-[(naphthalen-2-yl)carbonyl]-3-(pyridin-2-yl)-1H-pyrazol-5-amine] showed an IC50 greater than 1000 nM. Compound CCCn1nc(-c2ccccn2)nc1NCc1ccc(F)cc1 [Cmpd 216, N-[(4-fluorophenyl)methyl]-1-propyl-3-(pyridin-2-yl)-1H-1,2,4-triazol-5-amine] has an IC50 greater than 1000 nM. For O=C(c1c(Cl)cccc1Cl)n1nc(-c2ccccn2)nc1NCc1ccccc1 [Cmpd 238, N-benzyl-1-[(2,6-dichlorophenyl)carbonyl]-3-(pyridin-2-yl)-1H-1,2,4-triazol-5-amine], the IC50 was greater than 1000 nM. With O=C(c1cccs1)n1nc(-c2ccncc2)nc1NCc1ccccc1 [Cmpd 288, N-benzyl-3-(pyridin-4-yl)-1-[(thiophen-2-yl)carbonyl]-1H-1,2,4-triazol-5-amine] the IC50 was less than 100 nM. With O=C(c1ccsc1)n1nc(-c2ccccc2F)cc1NCc1ccccc1 [Cmpd 279, N-benzyl-3-(2-fluorophenyl)-1-[(thiophen-3-yl)carbonyl]-1H-pyrazol-5-amine] the IC50 was greater than 1000 nM. O=C(c1ccoc1)n1nc(-c2ccncc2)nc1NCc1ccccc1 [Cmpd 268, N-benzyl-1-[(furan-3-yl)carbonyl]-3-(pyridin-4-yl)-1H-1,2,4-triazol-5-amine] was tested, and the IC50 was less than 100 nM. O=C(c1ccoc1)n1nc(-c2ccncc2)nc1NCc1ccc(F)cc1 [Cmpd 214, N-[(4-fluorophenyl)methyl]-1-[(furan-3-yl)carbonyl]-3-(pyridin-4-yl)-1H-1,2,4-triazol-5-amine] showed an IC50 of less than 100 nM. O=C(c1cccs1)n1nc(-c2ccccn2)nc1NCc1ccccc1 [Cmpd 282, N-benzyl-3-(pyridin-2-yl)-1-[(thiophen-2-yl)carbonyl]-1H-1,2,4-triazol-5-amine] gave an IC50 of less than 100 nM.

Same assay, conditions: inhibition of the protease activity of thrombin; class symbols a/b/c
With CCOC(=O)n1nc(-c2cccnc2)nc1NCc1ccc(F)cc1 [Cmpd 192, ethyl 5-[(4-fluorophenyl)methyl]amino-3-(pyridin-3-yl)-1H-1,2,4-triazole-1-carboxylate] the IC50 was 100 to 1000 nM. O=C(c1cc(-c2ccccn2)nn1CCc1ccc(F)cc1)N1CCCCC1 [Cmpd 54] gave an IC50 greater than 1000 nM. For COc1ccccc1C(=O)n1nc(-c2ccccn2)nc1NCc1cc2ccccc2s1 [Cmpd 198, N-(1-benzothiophen-2-ylmethyl)-1-[(2-methoxyphenyl)carbonyl]-3-(pyridin-2-yl)-1H-1,2,4-triazol-5-amine], the IC50 was greater than 1000 nM. Fc1ccc(CNc2cc(-c3ccccn3)nn2-c2ccccc2Cl)cc1 [Cmpd 45] gave an IC50 greater than 1000 nM. Work on COc1ccc(CNc2nc(-c3ccncc3)nn2C(=O)CCc2ccccc2)cc1 [Cmpd 98, 1-(5-[(4-methoxyphenyl)methyl]amino-3-(pyridin-4-yl)-1H-1,2,4-triazol-1-yl)-3-phenylpropan-1-one] yielded an IC50 greater than 1000 nM. In the case of CN(C)C(=O)c1n[nH]c(C(=O)Nc2ccccc2Cl)n1 [Cmpd 186, 5-C-(2-chlorobenzene)-3-N,3-N-dimethyl-1H-1,2,4-triazole-3,5-dicarboxamide], the IC50 is reported as greater than 1000 nM. CC(C)(C)C(=O)Nc1nc(C(=O)N2CCOCC2)n[nH]1 [Cmpd 169, 2,2-dimethyl-N-3-[(morpholin-4-yl)carbonyl]-1H-1,2,4-triazol-5-ylpropanamide] showed an IC50 greater than 1000 nM. COc1ccc(CNc2nc(-c3ccccn3)nn2C(=O)CCc2ccccc2)cc1 [Cmpd 91, 1-(5-[(4-methoxyphenyl)methyl]amino-3-(pyridin-2-yl)-1H-1,2,4-triazol-1-yl)-3-phenylpropan-1-one] showed an IC50 of 100 to 1000 nM. With CCC(=O)n1nc(-c2cccnc2)nc1NCc1cccc(C#N)c1 [Cmpd 179, 3-([1-propanoyl-3-(pyridin-3-yl)-1H-1,2,4-triazol-5-yl]aminomethyl)benzonitrile] the IC50 was greater than 1000 nM. With CCC(=O)n1nc(-c2cccc(F)c2)nc1NCc1ccccc1 [Cmpd 135, 1-[5-(benzylamino)-3-(3-fluorophenyl)-1H-1,2,4-triazol-1-yl]propan-1-one] the IC50 was 100 to 1000 nM. CCCC(=O)n1nc(-c2ccncc2)nc1NCc1ccc(OC)cc1 [Cmpd 99, 1-(5-[(4-methoxyphenyl)methyl]amino-3-(pyridin-4-yl)-1H-1,2,4-triazol-1-yl)butan-1-one] showed an IC50 of less than 100 nM. In the case of CC(C)CC(=O)n1nc(-c2ccccn2)nc1NCc1ccccc1 [Cmpd 140, 1-[5-(benzylamino)-3-(pyridin-2-yl)-1H-1,2,4-triazol-1-yl]-3-methylbutan-1-one], the IC50 is reported as less than 100 nM. Compound Fc1ccc(CNc2nc(-c3ccccn3)n(Cc3ccccc3)n2)cc1 [Cmpd 162, 1-benzyl-N-[(4-fluorophenyl)methyl]-5-(pyridin-2-yl)-1H-1,2,4-triazol-3-amine] has an IC50 greater than 1000 nM. CC(C)(C)C(=O)n1nc(-c2ccccn2)cc1NCc1ccoc1 [Cmpd 166, 1-5-[(furan-3-ylmethyl)amino]-3-(pyridin-2-yl)-1H-pyrazol-1-yl-2,2-dimethylpropan-1-one] gave an IC50 of 100 to 1000 nM. COc1ccc(CNc2nc(-c3ccncc3)nn2C(=O)CC(C)C)cc1 [Cmpd 97, 1-(5-[(4-methoxyphenyl)methyl]amino-3-(pyridin-4-yl)-1H-1,2,4-triazol-1-yl)-3-methylbutan-1-one] was tested, and the IC50 was less than 100 nM. Work on CC(C)CC(=O)n1nc(-c2ccncc2)nc1NCc1ccccc1 [Cmpd 148, 1-[5-(benzylamino)-3-(pyridin-4-yl)-1H-1,2,4-triazol-1-yl]-3-methylbutan-1-one] yielded an IC50 of less than 100 nM. O=C(Cc1ccccc1)n1nc(-c2ccncc2)nc1NCc1ccc(F)cc1 [Cmpd 77, 1-(5-[(4-fluorophenyl)methyl]amino-3-(pyridin-4-yl)-1H-1,2,4-triazol-1-yl)-2-phenylethan-1-one] was tested, and the IC50 was less than 100 nM.

Reference: patent US20170326125A1, “MULTISUBSTITUTED AROMATIC COMPOUNDS AS INHIBITORS OF THROMBIN” (VERSEON CORPORATION, priority 2016, published 2017)
